Among the data in ChEMBL document CHEMBL3351318, “Synthesis of novel 4-nitropyrrole-based semicarbazide and thiosemicarbazide hybrids with antimicrobial and anti-tubercular activity” (Bioorg Med Chem Lett, 2014) are MIC, IC50 and Ratio values, retold here.

Experiment [1] relates to Escherichia coli. The experiment in a line: Antimicrobial activity against Escherichia coli ATCC 25922 after 48 hrs by broth dilution technique. The format is functional. The note with it: ATCC 25922, 48 h. (Dilution methods test growth across graded concentrations, often in twofold steps.)
Experiment [2] has as its system Klebsiella pneumoniae. Briefly: Antimicrobial activity against Klebsiella pneumoniae after 48 hrs by broth dilution technique. It counts as functional.
Experiment [3] has as its system Staphylococcus aureus. The experiment in a line: Antimicrobial activity against methicillin-sensitive Staphylococcus aureus ATCC 35556 after 48 hrs by broth dilution technique. Particulars: ATCC 35556, 48 h. The format is functional.
Experiment [4] relates to Staphylococcus aureus. Briefly: Antimicrobial activity against methicillin-resistant Staphylococcus aureus ATCC 43866 after 48 hrs by broth dilution technique. It counts as functional. Particulars: ATCC 43866, 48 h.
Experiment [5] concerns Candida albicans. The experiment in a line: Antimicrobial activity against Candida albicans after 48 hrs by agar dilution method. It counts as functional. Background: In agar dilution the substance is mixed into plates at graded concentrations.
For experiment [6], the system named is Mycobacterium tuberculosis. The experiment in a line: Antitubercular activity against Mycobacterium tuberculosis H37Rv after 7 days by Resazurin micro titer assay. Particulars: 168 h. It counts as functional. (In general: Resazurin is reduced to fluorescent resorufin, in cell work by metabolically active cells.)
Experiment [7] has as its system Vero. The experiment in a line: Cytotoxicity against African green monkey Vero cells assessed as reduction in cell viability after 72 hrs by MTT assay. The note with it: Chlorocebus sabaeus. The format is cell-based.
The test system of experiment [8] is Candida albicans. The experiment in a line: Ratio of Amphotericin B MIC to compound MIC for Candida albicans after 48 hrs by broth dilution technique. It counts as functional.

Converted amounts (≈) assume the structure as drawn.

A word on the MIC: it is the lowest concentration found to suppress growth. Broadly, the IC50 is the concentration that gives 50% inhibition. For the compound `Cn1cc([N+](=O)[O-])cc1C(=O)NNC(=O)Nc1ccc(Cl)cc1`, the MIC was determined as 1.56 µg/mL (≈ 4.62 µM) in experiment [1]; 3.12 µg/mL (≈ 9.25 µM) in experiment [2]; 1.56 µg/mL (≈ 4.62 µM) in experiment [3]; 3.12 µg/mL (≈ 9.25 µM) in experiment [4]; 1.56 µg/mL (≈ 4.62 µM) in experiment [5]; 30.5 µg/mL (≈ 90.3 µM) in experiment [6]. Also, in experiment [7], the IC50 was 290 µM. Further, the Ratio in experiment [8] was 2.
Turning to `COc1ccc(OC)c(NC(=O)NNC(=O)c2cc([N+](=O)[O-])cn2C)c1`, the minimum inhibitory concentration (MIC) in experiment [1] amounted to 1.56 µg/mL (≈ 4.29 µM); in experiment [2], 6.25 µg/mL (≈ 17.2 µM); in experiment [3], 3.12 µg/mL (≈ 8.6 µM); in experiment [4] it was 6.25 µg/mL (≈ 17.2 µM); in experiment [5], 1.56 µg/mL (≈ 4.29 µM); in experiment [6] it was 42.4 µg/mL (≈ 117 µM). The IC50 in experiment [7] is 429 µM. Moreover, in experiment [8], the Ratio stood at 2.
Take `C=[N+]([O-])c1cc(C(=O)NNC(=O)NCc2ccccc2)n(C)c1`: the MIC in experiment [1] amounted to 3.12 µg/mL (≈ 9.91 µM); in experiment [2], 3.12 µg/mL (≈ 9.91 µM); in experiment [3] it was 1.56 µg/mL (≈ 4.95 µM); in experiment [4], 3.12 µg/mL (≈ 9.91 µM); in experiment [5] it was 1.56 µg/mL (≈ 4.95 µM); in experiment [6], 51.9 µg/mL (≈ 165 µM). The IC50 in experiment [7] is 304 µM. The Ratio in experiment [8] was 2.
As for `Cn1cc([N+](=O)[O-])cc1C(=O)NNC(=O)NCCc1ccccc1`, the MIC in experiment [1] is 3.12 µg/mL (≈ 9.43 µM); in experiment [2], 6.25 µg/mL (≈ 18.9 µM); in experiment [3], 1.56 µg/mL (≈ 4.71 µM); in experiment [4] it was 3.12 µg/mL (≈ 9.43 µM); in experiment [5], 1.56 µg/mL (≈ 4.71 µM); in experiment [6] it was 42.1 µg/mL (≈ 127 µM). Besides, the IC50 in experiment [7] is 633 µM. Besides, the Ratio in experiment [8] amounted to 2.
Take `Cn1cc([N+](=O)[O-])cc1C(=O)NNC(=O)NCc1ccco1`: the MIC in experiment [1] was 1.56 µg/mL (≈ 5.08 µM); in experiment [2], 3.12 µg/mL (≈ 10.2 µM); in experiment [3], 1.56 µg/mL (≈ 5.08 µM); in experiment [4] it was 3.12 µg/mL (≈ 10.2 µM); in experiment [5], 1.56 µg/mL (≈ 5.08 µM); in experiment [6], 17 µg/mL (≈ 55.3 µM). In addition, the IC50 in experiment [7] is 482 µM. For the same compound, the Ratio in experiment [8] worked out at 2.
Regarding `Cn1cc([N+](=O)[O-])cc1C(=O)NNC(=O)NC1CCCC1`, the MIC worked out at 1.56 µg/mL (≈ 5.28 µM) in experiment [1]; 3.12 µg/mL (≈ 10.6 µM) in experiment [2]; 1.56 µg/mL (≈ 5.28 µM) in experiment [3]; 3.12 µg/mL (≈ 10.6 µM) in experiment [4]; 1.56 µg/mL (≈ 5.28 µM) in experiment [5]; 38.7 µg/mL (≈ 131 µM) in experiment [6]. Besides, in experiment [7], the IC50 is 271 µM. Further, the Ratio in experiment [8] was 2.
On to `O=C(NNC(=S)Nc1ccc([N+](=O)[O-])cc1)c1cc([N+](=O)[O-])c[nH]1`, for which the MIC in experiment [1] came out at 1.56 µg/mL (≈ 4.45 µM); in experiment [2], 3.12 µg/mL (≈ 8.92 µM); in experiment [3] it was 1.56 µg/mL (≈ 4.45 µM); in experiment [4], 3.12 µg/mL (≈ 8.92 µM); in experiment [5], 3.12 µg/mL (≈ 8.92 µM); in experiment [6] it was 0.5 µg/mL (≈ 1.43 µM). The concentration for half-maximal inhibition (IC50) in experiment [7] worked out at 529 µM. Also, the Ratio in experiment [8] was found to be 4.
`COc1ccc(NC(=S)NNC(=O)c2cc([N+](=O)[O-])c[nH]2)cc1`: the MIC stood at 1.56 µg/mL (≈ 4.65 µM) in experiment [1]; 3.12 µg/mL (≈ 9.32 µM) in experiment [2]; 1.56 µg/mL (≈ 4.65 µM) in experiment [3]; 3.12 µg/mL (≈ 9.32 µM) in experiment [4]; 3.12 µg/mL (≈ 9.32 µM) in experiment [5]; 1.3 µg/mL (≈ 3.88 µM) in experiment [6]. Besides, the IC50 in experiment [7] was determined as 331 µM. The Ratio in experiment [8] is given as 4.
Consider `Cc1ccccc1NC(=S)NNC(=O)c1cc([N+](=O)[O-])c[nH]1`, for which the minimum inhibitory concentration (MIC) in experiment [1] turned out to be 1.56 µg/mL (≈ 4.88 µM); in experiment [2], 3.12 µg/mL (≈ 9.79 µM); in experiment [3] it was 1.56 µg/mL (≈ 4.88 µM); in experiment [4], 3.12 µg/mL (≈ 9.79 µM); in experiment [5], 3.12 µg/mL (≈ 9.79 µM); in experiment [6] it was 0.67 µg/mL (≈ 2.1 µM). In addition, the IC50 in experiment [7] is 462 µM. For the same compound, the Ratio in experiment [8] was 4.
`COc1cc(NC(=S)NNC(=O)c2cc([N+](=O)[O-])c[nH]2)cc(OC)c1OC`: the minimum inhibitory concentration (MIC) in experiment [1] amounted to 1.56 µg/mL (≈ 3.95 µM); in experiment [2], 3.12 µg/mL (≈ 7.9 µM); in experiment [3], 3.12 µg/mL (≈ 7.9 µM); in experiment [4] it was 6.25 µg/mL (≈ 15.8 µM); in experiment [5], 3.12 µg/mL (≈ 7.9 µM); in experiment [6], 2.7 µg/mL (≈ 6.83 µM). The IC50 in experiment [7] came out at 328 µM. Moreover, the Ratio in experiment [8] came to 4.
As to `Cn1cc([N+](=O)[O-])cc1C(=O)NNC(=S)NCCc1ccccc1`, the MIC in experiment [1] was 0.78 µg/mL (≈ 2.25 µM); in experiment [2], 3.12 µg/mL (≈ 9 µM); in experiment [3], 0.39 µg/mL (≈ 1.12 µM); in experiment [4], 0.78 µg/mL (≈ 2.25 µM); in experiment [5], 0.78 µg/mL (≈ 2.25 µM); in experiment [6], 23 µg/mL (≈ 66.2 µM). Besides, the IC50 in experiment [7] is 404 µM. Moreover, the Ratio in experiment [8] came to 4.
For the compound `C[C@@H]1[C@H](O)[C@@H](C)/C=C/C=C/C=C/C=C/C=C/C=C/C=C/[C@H](O[C@@H]2O[C@H](C)[C@@H](O)[C@H](N)[C@@H]2O)C[C@@H]2O[C@](O)(C[C@@H](O)C[C@@H](O)[C@H](O)CC[C@@H](O)C[C@@H](O)CC(=O)O[C@H]1C)C[C@H](O)[C@H]2C(=O)O` [AMPHOTERICIN B], the MIC in experiment [5] was 3.12 µg/mL (≈ 3.38 µM).
Consider `O=C(O)c1cn(C2CC2)c2cc(N3CCNCC3)c(F)cc2c1=O` [CIPROFLOXACIN], for which the minimal inhibitory concentration (MIC) in experiment [2] amounted to 1.56 µg/mL (≈ 4.71 µM); in experiment [3] it was 1.56 µg/mL (≈ 4.71 µM); in experiment [4], 3.12 µg/mL (≈ 9.43 µM).
`NNC(=O)c1ccncc1` [ISONIAZID] yielded an MIC in experiment [6] of 0.4 µg/mL (≈ 2.92 µM).
